Where “and” joins values, the source holds several entries; their conditions need not be identical. Equal values may be shown once. Entries after “also recorded” stand apart in the source; their conditions may differ.

Test [1] concerns hypocotyl explants of tomato cultivar Ailsa Craig. Briefly: Callus formation of tomato hypocotyl explants on callus-inducing medium (CIM). The format is cell-based. The protocol: FIG. 6—(a) Hypocotyl explants of WT (Ailsa Craig, AC) and prr mutants were cultured on callus-inducing medium (CIM) in the absence of SIPEP (REF1) and CIM REF1 at a concentration of 1 nM for 14 days, photographs of the callus formation of these plants are shown. (b) The distribution of projected callus area of WT and prr mutants grown in the absence of REF1 in a callus inducing medium (control) and in a callus inducing medium in the presence of 1 nM SIPEP (REF1). The projected area of callus was quantified by Image J. Individual values (black dots) are shown and error bars represent SD from three independent experiments.
FIG. 9—Hypocotyl explants of WT (Ailsa Craig, AC) were cultured on callus-inducing medium (CIM) containing indicated concentrations of REF1, and callus phenotype was scored 14 days after incubation. […] The projected area of callus was quantified by Image J. Individual values (black dots) are shown and error bars represent SD from three independent experiments. ***P<0.001, **P<0.01, *P<0.05 (Student's t-test).
Relative callus area was determined by quantifying the area of each callus using ImageJ, the average of each group was calculated, for each group this was then divided by the average of the control group.
To further test whether SIPEP (REF1) is a wound signal promoting regeneration in tomato, wild type, prr-1 and prr-2 Aisla Craig hypocotyl explants were cultured on a callus inducing medium in the presence and absence of SIPEP (REF1) at 1 nM. The callus phenotype was then scored at 14 days after incubation (FIG. 6), here it can be seen that presence of 1 nM REF1 in the medium increased callus area in all explants tested, crucially, the relative callus area of prr-1 and prr-2 was restored when REF1 was present in the medium.
To test the effect of the dose of SIPEP (REF1) on callus formation hypocotyl explants of WT (Ailsa Craig) were cultured on callus-inducing medium (CIM) containing indicated concentrations of REF1 in FIG. 9 (mock with 0, 10^−4, 10^−3, […], 1, and 10 nM) and callus phenotype was scored 14 days after incubation. Box plots represent the distribution of projected callus area.
Callus formation was measured in RER knock out mutants (rer-1 and rer-3) compared to wild type (WT) tomato plants (Ailsa Craig) in the presence and absence of SIPEP (REF1). […] Here it can be seen that callus area was highest in WT plant grown with REF1, as REF1 induces callus formation, as shown in Examples 2 and 4.

In test [2] the test system is RER. Briefly: pFRK1::LUC expression in A. thaliana protoplasts (receptor activation). The format is cell-based, tomato. The settings on record: 3 h.
Chain of RER (as listed by the source): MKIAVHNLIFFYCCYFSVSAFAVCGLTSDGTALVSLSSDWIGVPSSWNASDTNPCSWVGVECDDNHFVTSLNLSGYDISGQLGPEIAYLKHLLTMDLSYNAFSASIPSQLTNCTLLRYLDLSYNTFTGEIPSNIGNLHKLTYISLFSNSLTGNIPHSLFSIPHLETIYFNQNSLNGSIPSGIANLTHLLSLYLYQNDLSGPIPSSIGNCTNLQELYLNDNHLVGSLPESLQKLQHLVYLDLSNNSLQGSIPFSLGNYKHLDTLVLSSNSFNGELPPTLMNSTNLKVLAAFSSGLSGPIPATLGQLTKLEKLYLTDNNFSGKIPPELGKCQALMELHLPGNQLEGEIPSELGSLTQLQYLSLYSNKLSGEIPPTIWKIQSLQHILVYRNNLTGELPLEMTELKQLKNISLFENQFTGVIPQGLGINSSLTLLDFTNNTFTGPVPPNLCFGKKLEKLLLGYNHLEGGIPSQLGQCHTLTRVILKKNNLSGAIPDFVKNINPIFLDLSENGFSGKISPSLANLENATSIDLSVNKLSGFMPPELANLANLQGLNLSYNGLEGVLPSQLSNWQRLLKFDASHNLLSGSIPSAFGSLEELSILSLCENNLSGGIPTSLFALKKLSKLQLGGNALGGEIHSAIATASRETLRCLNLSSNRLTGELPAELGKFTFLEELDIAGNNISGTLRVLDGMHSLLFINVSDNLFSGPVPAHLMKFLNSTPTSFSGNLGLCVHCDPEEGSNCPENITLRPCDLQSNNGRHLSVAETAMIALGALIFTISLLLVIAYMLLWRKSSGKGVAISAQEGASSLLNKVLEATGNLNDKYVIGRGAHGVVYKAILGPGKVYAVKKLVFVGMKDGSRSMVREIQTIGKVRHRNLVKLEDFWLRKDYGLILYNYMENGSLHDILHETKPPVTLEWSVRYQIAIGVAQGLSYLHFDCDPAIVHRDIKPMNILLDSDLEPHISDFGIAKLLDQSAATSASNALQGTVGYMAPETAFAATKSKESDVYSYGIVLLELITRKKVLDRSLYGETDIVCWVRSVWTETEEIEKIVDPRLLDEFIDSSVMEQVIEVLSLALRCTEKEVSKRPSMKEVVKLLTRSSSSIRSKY
Procedure: Data are mean±SD, n=3 repeats. […] Data are mean±SD, n=3 repeats.
Receptor activation was tested by using FRK1 expression as a marker gene. […] Data are mean±SD, n=3 repeats. ***P<0.001 (Student's t test); ns, not significant FRK-Luciferase expression was used as a marker to test REF1 binding-mediated activation of its receptor. Based on these assay, the EC50 was calculated (half-maximal stimulation) of REF1-receptor binding as an assessment of the binding affinity of REF1 to its receptor RER.
The subject of test [3] is LA1777 tomatoes. Briefly: Shoot regeneration of recalcitrant wild tomato LA1777. It is filed as cell-based, S. habrochaites. The settings on record: LA1777, 1 nM REF1 vs REF1 absent. On the procedure: (a) photos of LA1777 grown in the presence and absence of 1 nM REF1. (b) relative regeneration frequency of LA1777 grown in the presence and absence of 1 nM REF1. (c) number of hypocotyl of LA1777 grown in the presence and absence of 1 nM REF1.
(a) photos of control LA1777 tomatoes, PRR expressing LA1777 tomatoes, RER expressing LA1777 tomatoes, and PRR and RER expressing LA1777 tomatoes exposed to 1 nM REF1 for 25 days, or absence of REF1 (mock). (b) relative regeneration frequency of control LA1777 tomatoes, PRR expressing LA1777 tomatoes, RER expressing LA1777 tomatoes, and PRR and RER expressing LA1777 tomatoes exposed to 1 nM REF1 for 25 days, or absence of REF1 (mock).
The effect of exogenously applied REF1 in a shoot inducing growth medium was investigated in LA1777 tomatoes by growing LA1777 tomatoes in the presence and absence of 1 nM REF1. […] Likewise, FIG. 20B shoes that relative regeneration frequency of LA1777 was 6-fold higher when grown in the presence of REF1 compared to when REF1 was absent, similarly, the number of hypocotyl was also higher in the presence of REF1.

Test [4] deals with RER1-SERKs receptor complex. Briefly: Co-immunoprecipitation of RER with SERKs in tobacco leaves. It is filed as cell-based, tomato. The following applies: 100 nM REF1. The protocol: FIG. 49—REF1-RER1 regulates regeneration through SERK co-receptors. (a) RER1 complexes with SERK1, SERK3a and SERK3b in a REF1-dependent manner. Tobacco leaves transfected with SERKs-myc and RER1-HA-Flag were treated with 100 nM REF1 before IP with anti-myc agarose. RER1 and SERKs were detected by immunoblotting with anti-Flag or anti-myc antibodies, respectively. (b and c) REF1-induced callus formation of indicated genotypes. Hypocotyl explants were cultured on CIM with or without 1 nM REF1 for 14 d before callus phenotype was scored. Shown are representative callus images (b) and quantification of the callus projection area (c). Bars, 1 mm. Data are mean±SE. n=30 hypocotyl explants. (d and e) REF1-induced shoot organogenesis of indicated genotypes. Hypocotyl explants were cultured on CIM for 14 d and then transferred to SIM with or without 1 nM REF1 for 21d before shoot organogenesis phenotype was scored. Shown are representative images of hypocotyl explants (d) and the number of regenerated shoots per explant (e). Bars, 0.5 cm. Data are mean±SE. n=50 hypocotyl explants. In (c), the projected area of callus was quantified by Image J. Box plots represented the distribution of projected callus area. […] In (c) and (e), data points from three biological replicates were analysed with a one-sided Kruskal-Wallis test with Holm correction, followed by post hoc Dunn's test. […]
Chain of RER1-SERKs receptor complex (as listed by the source): as above

For “ATDRRGRPPSRPKVGSGPPPQNN (listed as Solanum lycopersicum) [REF1, 23 amino acid tomato peptide cleaved from precursor PROSIPEP]”, in test [1] (WT Ailsa Craig explants, CIM, 14 days), the “optimum concentration to maximize callus formation” value was determined as 1 nM. Moreover, the relative callus area in test [1] (WT Ailsa Craig, 10 nM REF1 compared with 1 nM) is reported as “sharp decrease”. In addition, the relative callus area in test [1] (WT Ailsa Craig, CIM with 1 nM REF1 vs without, 14 days) was “induced larger callus areas; also recorded: highest”. In test [1] (WT Ailsa Craig, CIM, mock to 10 nM REF1, 14 days), the “relative callus area, dose dependence” value is given as “increased in a dose dependent manner”. Further, the relative callus area in test [1] (prr-1 and prr-2 mutants, CIM with 1 nM REF1, 14 days) is given as “restored”. In addition, in test [1] (rer-1 and rer-3 knockouts, presence vs absence of REF1), the “REF1 induced callus formation (relative callus area)” value is given as “failing to lead to any increase; also recorded: defective”. Moreover, the “binding-mediated activation of receptor RER (pFRK1::LUC expression)” value in test [2] (100 nM) was “bound”. Besides, in test [2] (indicated concentrations), the “binding affinity of REF1 to its receptor RER” value is listed as “high affinity”. For the same sequence, in test [3], the number of hypocotyl entry is “higher”; the “relative regeneration frequency, increase” value is ~ 6 fold and 6 fold; the shoot regeneration entry is recorded as “greater shoot regeneration; also recorded: promotes shoot regeneration”. For the same sequence, the “complex formation of RER with SERK1, SERK3a and SERK3b (co-IP)” value in test [4] is given as “could simulate complex formation; also recorded: REF1-dependent”.

Source of the values: US20260265771A1, “METHODS OF INCREASING THE REGENERATION EFFICIENCY IN PLANTS” (Institute of Genetics and Developmental Biology Chinese …, priority 2022, published 2026).
